According to ChEMBL document CHEMBL1201862, “PubChem BioAssay data set” (2004):
Calls of active or inactive are those of the source.

What was measured:
Cytochrome P450 2C9 = Cytochrome P450 2C9 (Homo sapiens, UniProt P11712)
Cytochrome P450 2C19 = Cytochrome P450 2C19 (Homo sapiens, UniProt P33261); assay: Cytochrome panel assay with activity outcomes. Panel member name: p450-cyp2c19 Compounds with AC50 equal or less than 10 uM are considered active; format: functional; details: read-out: AC50
[1] = target: Voltage-gated inwardly rectifying potassium channel KCNH2 (Homo sapiens, UniProt Q12809); details: Potency;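 note: confirmatory quantitative high-throughput screen measuring inhibition of hERG channel activity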
Sequence of Voltage-gated inwardly rectifying potassium channel KCNH2 (Q12809 whole entry): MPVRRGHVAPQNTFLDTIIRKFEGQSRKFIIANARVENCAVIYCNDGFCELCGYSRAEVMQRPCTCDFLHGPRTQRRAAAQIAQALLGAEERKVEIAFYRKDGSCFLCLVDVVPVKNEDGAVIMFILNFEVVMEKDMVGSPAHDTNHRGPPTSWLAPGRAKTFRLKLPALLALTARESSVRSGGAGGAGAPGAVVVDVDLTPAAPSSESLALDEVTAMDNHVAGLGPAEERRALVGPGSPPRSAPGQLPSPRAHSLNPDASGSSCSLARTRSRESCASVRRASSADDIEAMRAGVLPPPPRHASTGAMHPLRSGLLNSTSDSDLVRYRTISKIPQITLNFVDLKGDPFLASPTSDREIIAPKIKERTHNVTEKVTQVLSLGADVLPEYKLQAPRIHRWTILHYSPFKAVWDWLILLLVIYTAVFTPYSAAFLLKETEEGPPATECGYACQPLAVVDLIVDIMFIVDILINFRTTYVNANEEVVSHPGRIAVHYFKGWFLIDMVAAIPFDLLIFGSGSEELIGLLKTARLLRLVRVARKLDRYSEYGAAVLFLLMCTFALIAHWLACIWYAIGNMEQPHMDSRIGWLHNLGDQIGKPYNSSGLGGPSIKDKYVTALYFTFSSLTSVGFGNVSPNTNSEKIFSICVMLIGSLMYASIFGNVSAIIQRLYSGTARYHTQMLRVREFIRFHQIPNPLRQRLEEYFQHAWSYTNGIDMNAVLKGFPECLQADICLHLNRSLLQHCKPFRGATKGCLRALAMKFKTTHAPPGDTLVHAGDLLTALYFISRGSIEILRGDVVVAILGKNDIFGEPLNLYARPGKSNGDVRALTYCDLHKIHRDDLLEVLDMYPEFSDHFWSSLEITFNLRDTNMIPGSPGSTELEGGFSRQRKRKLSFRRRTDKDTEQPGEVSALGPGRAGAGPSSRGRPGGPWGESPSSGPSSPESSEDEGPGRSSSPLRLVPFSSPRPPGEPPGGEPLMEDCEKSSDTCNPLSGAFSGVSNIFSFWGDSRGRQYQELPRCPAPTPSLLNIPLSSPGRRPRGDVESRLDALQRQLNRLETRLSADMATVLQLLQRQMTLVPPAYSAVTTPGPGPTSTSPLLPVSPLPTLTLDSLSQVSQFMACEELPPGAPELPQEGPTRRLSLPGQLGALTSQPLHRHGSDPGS

[2] = HEp-2 cell cytotoxicity, dose response, cytotoxicity control for RSV inhibitor project, HTS (AID 2410); format: functional; details: human respiratory syncytial virus
[3] = cytotoxicity in HMLE control line with eGFP shRNA, dose response, counter-screen for HMLE_sh_ECad selective toxicity project, cell-based, HMLE_sh_eGFP, luminescence (AID 463074); format: functional, Homo sapiens;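 note: HMLE human mammary epithelial cells expressing control shRNA against eGFP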
[4] = Luminescence Cell-Based Dose Retest to Confirm Inhibitors of Cancer Stem Cells. [Related pubchem assays (depositor defined):AID2717, AID2721]; format: functional; details: Homo sapiens
[5] = inhibitors of intracellular T. cruzi replication, confirmation, NIH3T3 host cells, beta-gal luminescence (AID 2044); format: functional, cell-based;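 note: intracellular parasites grown in NIH/3T3 mouse fibroblasts as host cells; luminescent beta-galactosidase reporter signal from transgenic T. cruzi replicating inside host cells; inhibitors lower the luminescence signal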
[6] = cytotoxicity toward NIH3T3 fibroblasts, dose response, counter-screen, cell-based, ATP luminescence, mouse fibroblasts (AID 2010); format: functional;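 note: cells exposed to compound for about 90 hours before reading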
[7] = target: T1, Runt-related transcription factor 1/Core-binding factor subunit beta (Homo sapiens, UniProt Q01196+Q13951); assay: inhibitors of RUNX1 Runt–CBFb-SMMHC binding, biochemical, TR-FRET (AID 1438); format: protein assay
T1 sequence (Q01196 whole entry, the tested form may be a part): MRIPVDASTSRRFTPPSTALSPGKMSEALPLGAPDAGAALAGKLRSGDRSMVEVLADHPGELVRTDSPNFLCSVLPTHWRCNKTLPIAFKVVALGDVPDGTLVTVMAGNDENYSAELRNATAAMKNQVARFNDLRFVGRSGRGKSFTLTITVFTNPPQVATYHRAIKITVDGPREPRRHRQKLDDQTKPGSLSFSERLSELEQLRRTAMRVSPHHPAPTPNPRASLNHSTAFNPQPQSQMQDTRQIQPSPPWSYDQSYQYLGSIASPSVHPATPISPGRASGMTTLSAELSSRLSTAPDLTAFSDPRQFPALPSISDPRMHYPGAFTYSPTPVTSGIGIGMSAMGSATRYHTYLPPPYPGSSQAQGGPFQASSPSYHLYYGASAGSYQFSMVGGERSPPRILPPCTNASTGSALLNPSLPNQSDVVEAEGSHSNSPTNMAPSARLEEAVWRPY
T1 sequence (Q13951 whole entry, the tested form may be a part): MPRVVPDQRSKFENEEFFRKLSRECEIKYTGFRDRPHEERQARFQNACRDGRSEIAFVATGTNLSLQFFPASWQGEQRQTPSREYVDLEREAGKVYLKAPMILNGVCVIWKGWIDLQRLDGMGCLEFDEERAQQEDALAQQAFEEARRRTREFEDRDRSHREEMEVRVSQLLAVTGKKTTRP

[8] = target: T1, Runt-related transcription factor 1/Core-binding factor subunit beta; assay: inhibitors of RUNX1 Runt–CBFb-SMMHC binding, primary screen, biochemical, FRET, Cerulean-Runt, Venus-CBFb-SMMHC, uHTS (AID 1434); format: protein assay;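 note: partner is the CBFb-SMMHC leukemia fusion protein rather than wild-type CBFb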
[9] = target: T2, Alkaline phosphatase, tissue-nonspecific isozyme (Homo sapiens, UniProt P05186); assay: TNAP enzyme activators, dose response, selectivity assay for human IAP activator project, biochemical, TNAP isozyme, human IAP uHTS hits (AID 488886); format: functional;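 note: potency of compounds raising TNAP activity as a selectivity check on IAP activators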
T2 sequence (P05186 whole entry): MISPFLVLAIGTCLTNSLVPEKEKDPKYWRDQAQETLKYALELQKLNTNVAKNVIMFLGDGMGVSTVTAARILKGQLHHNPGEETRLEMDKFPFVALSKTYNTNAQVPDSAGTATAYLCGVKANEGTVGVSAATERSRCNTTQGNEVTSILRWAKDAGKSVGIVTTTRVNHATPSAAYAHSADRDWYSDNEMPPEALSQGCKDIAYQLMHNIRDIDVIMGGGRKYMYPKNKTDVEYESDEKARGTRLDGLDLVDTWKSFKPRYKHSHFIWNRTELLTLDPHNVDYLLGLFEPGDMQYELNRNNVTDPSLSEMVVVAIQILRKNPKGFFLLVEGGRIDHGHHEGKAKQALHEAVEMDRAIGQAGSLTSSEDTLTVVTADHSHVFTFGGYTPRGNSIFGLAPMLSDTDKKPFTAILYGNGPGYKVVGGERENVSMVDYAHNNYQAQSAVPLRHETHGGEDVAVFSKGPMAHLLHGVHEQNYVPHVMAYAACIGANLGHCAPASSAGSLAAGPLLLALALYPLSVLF

[10] = target: Intestinal-type alkaline phosphatase (Mus musculus, UniProt P24822); assay: PubChem AID 488874; format: functional
Sequence of Intestinal-type alkaline phosphatase (Mus musculus, UniProt P24822) (P24822 whole entry): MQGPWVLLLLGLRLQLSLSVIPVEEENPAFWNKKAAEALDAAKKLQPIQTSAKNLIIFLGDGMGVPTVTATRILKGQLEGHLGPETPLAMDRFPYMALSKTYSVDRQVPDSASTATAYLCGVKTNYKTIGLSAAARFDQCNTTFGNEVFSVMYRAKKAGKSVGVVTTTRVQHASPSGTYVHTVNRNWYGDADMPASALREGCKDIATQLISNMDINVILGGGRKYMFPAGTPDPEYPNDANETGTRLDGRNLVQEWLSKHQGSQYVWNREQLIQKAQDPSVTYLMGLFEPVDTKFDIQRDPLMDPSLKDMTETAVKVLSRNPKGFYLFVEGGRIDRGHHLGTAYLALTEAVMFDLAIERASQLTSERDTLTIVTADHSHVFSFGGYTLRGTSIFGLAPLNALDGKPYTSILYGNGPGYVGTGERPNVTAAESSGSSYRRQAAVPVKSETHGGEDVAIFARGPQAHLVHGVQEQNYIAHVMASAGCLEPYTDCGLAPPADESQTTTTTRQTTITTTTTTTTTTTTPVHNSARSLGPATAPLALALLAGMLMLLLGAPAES

[11] = target: T3, Intestinal-type alkaline phosphatase (Homo sapiens, UniProt P09923); assay: human intestinal alkaline phosphatase activators, dose response, biochemical, luminescence, uHTS hits (AID 463120); format: functional
T3 sequence (P09923 whole entry): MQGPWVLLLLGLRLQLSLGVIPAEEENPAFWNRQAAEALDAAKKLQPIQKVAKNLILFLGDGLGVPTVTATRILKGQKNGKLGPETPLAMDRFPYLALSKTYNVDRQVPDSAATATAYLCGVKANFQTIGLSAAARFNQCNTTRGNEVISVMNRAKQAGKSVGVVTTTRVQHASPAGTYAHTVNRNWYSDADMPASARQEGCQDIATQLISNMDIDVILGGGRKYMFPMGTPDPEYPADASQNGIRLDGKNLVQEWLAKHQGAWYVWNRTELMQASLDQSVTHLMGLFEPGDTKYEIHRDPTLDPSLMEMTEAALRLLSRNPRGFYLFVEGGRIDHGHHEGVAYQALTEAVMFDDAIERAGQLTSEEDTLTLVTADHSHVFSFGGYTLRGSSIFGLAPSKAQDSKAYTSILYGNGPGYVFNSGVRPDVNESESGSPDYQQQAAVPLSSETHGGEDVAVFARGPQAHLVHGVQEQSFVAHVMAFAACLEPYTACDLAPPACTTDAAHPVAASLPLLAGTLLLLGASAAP

[12] = target: T3, Intestinal-type alkaline phosphatase; assay: human IAP activators, dose response, biochemical, luminescent, uHTS hits, set 2 (AID 488817); format: functional;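 note: potency of activators that raise enzyme activity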
[13] = target: T4, High affinity choline transporter 1 (Homo sapiens, UniProt Q9GZV3); assay: CHT inhibitors, dose response, cell-based, 5-point CRC, membrane potential dye (AID 504840); format: functional
T4 sequence (Q9GZV3 whole entry): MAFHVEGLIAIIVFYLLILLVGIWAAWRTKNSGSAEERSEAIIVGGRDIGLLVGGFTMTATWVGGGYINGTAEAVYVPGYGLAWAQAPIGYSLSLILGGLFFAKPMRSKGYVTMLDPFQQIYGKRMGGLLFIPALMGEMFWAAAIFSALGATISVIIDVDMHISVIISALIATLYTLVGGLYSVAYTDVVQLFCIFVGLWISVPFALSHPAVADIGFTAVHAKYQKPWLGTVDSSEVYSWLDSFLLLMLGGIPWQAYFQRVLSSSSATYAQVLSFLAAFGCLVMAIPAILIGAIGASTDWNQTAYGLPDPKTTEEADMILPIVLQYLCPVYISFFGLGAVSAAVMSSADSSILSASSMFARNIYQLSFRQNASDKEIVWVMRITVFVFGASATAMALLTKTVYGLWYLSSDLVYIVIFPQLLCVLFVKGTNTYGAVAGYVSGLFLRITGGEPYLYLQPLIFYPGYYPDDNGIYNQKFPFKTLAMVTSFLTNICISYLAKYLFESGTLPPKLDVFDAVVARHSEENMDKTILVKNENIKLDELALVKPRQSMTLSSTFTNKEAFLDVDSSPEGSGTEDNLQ

HEK293 = assay: cells; details: Homo sapiens;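 note: cells exposed to compound for 14 hours overnight before viability readout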
[14] = target: T5, COUP transcription factor 2 (Homo sapiens, UniProt P24468); assay: Luminescence-based cell-based high throughput dose response assay to identify inhibitors of COUP-TFII (NR2F2).; format: functional;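 note: HEK293 cells transiently cotransfected with COUP-TFII expression vector and reporter; luciferase reporter luminescence driven by COUP-TFII from the pX2-168 reporter plasmid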
T5 sequence (P24468 whole entry): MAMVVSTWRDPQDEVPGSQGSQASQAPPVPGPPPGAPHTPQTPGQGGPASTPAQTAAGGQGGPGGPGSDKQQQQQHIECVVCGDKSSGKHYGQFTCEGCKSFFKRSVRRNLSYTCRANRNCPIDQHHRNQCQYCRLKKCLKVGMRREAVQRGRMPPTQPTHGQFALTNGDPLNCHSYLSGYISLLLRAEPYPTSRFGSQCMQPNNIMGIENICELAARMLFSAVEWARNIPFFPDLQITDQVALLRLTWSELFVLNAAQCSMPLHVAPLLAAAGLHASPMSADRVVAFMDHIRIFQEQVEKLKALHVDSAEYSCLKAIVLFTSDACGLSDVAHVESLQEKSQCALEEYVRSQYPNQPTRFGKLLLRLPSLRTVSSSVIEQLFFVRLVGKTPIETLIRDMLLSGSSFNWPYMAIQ

[15] = target: T6, Nucleotide-binding oligomerization domain-containing protein 1 (Homo sapiens, UniProt Q9Y239); assay: NOD1 signaling inhibitors, SAR follow-up, revised (AID 2333); format: functional
T6 sequence (Q9Y239 whole entry): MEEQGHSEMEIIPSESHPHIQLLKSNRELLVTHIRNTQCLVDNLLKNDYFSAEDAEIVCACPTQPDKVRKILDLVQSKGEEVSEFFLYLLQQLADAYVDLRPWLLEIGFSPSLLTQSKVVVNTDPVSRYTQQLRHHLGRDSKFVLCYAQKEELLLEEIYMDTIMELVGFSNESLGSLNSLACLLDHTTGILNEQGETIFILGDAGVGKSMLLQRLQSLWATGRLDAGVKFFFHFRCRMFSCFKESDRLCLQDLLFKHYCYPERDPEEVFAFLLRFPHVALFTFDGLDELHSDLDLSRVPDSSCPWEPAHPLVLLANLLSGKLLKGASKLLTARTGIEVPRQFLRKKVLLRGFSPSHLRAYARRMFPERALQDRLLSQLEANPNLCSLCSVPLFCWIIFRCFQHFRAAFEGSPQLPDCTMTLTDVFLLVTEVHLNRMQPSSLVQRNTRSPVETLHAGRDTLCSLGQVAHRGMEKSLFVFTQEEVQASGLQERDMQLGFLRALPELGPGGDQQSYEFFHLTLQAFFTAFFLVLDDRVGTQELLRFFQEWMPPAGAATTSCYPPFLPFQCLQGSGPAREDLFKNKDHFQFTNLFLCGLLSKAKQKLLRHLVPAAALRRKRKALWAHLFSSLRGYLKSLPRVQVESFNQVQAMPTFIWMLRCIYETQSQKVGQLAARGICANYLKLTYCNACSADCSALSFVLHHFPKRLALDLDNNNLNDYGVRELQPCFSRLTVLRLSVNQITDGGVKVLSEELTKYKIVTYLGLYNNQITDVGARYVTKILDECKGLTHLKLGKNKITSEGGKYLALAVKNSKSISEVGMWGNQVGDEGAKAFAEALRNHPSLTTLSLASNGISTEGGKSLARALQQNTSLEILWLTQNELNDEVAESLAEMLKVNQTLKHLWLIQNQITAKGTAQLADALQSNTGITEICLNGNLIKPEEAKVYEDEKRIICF

[16] = ZM109 Env clade C HIV-1 fusion inhibitors, dose response, HeLa effector, CEM target cells, luciferase, cherry-pick (AID 652058); format: functional, cell-based
Tumor necrosis factor = Tumor necrosis factor (Homo sapiens, UniProt P01375); assay: TNFa-triggered NF-kB activation inhibitors, SAR follow-up, cell-based, revised (AID 2337); format: functional
Sequence of Tumor necrosis factor (P01375 whole entry, the tested form may be a part): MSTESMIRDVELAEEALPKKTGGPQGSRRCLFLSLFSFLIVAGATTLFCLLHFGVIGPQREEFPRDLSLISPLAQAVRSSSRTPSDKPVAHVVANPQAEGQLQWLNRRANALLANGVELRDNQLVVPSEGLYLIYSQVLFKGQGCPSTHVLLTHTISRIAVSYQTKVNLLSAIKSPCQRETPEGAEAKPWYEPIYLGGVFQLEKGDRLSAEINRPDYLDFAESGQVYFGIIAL

[17] = inhibitors of clade B AD8 Env fusion, dose response, cell-based, cherry-pick (AID 652062); format: functional;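 note: luciferase signal from cell-cell fusion driven by HIV-1 clade B AD8 Env; potency is for inhibitors of fusion seen as a drop in luminescence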

Sequence of Cytochrome P450 2C9 (P11712 whole entry): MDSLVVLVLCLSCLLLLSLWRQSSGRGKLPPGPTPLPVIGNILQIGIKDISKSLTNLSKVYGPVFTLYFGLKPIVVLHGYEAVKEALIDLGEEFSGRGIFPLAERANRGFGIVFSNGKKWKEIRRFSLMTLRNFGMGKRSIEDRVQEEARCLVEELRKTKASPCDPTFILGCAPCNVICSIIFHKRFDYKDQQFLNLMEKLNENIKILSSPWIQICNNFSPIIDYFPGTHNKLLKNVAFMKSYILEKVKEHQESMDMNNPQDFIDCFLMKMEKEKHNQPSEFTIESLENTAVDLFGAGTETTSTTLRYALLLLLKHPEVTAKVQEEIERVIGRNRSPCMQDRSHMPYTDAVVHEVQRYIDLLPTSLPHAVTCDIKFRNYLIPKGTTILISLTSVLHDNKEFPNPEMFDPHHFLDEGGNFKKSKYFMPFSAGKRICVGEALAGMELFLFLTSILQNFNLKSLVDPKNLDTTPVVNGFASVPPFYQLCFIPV
Sequence of Cytochrome P450 2C19 (P33261 whole entry): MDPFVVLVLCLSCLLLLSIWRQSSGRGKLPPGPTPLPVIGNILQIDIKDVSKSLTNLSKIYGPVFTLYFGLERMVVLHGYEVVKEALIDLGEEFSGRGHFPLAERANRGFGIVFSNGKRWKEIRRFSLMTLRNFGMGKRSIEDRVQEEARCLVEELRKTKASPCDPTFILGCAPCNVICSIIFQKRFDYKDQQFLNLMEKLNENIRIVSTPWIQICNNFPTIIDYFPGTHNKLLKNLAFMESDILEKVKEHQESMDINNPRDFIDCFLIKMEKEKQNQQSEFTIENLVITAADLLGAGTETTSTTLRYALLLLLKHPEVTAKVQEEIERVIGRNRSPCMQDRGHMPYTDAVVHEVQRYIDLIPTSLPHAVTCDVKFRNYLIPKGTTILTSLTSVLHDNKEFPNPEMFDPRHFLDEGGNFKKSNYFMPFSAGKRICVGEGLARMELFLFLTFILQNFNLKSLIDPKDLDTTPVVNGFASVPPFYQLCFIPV

CCCOC(=O)c1c(-c2ccccc2)nc(CC)c(C(=O)SCC)c1CCC
AC50 (Cytochrome P450 2C9): 7.94 µM (inconclusive)
AC50 (Cytochrome P450 2C19): 39.8 µM (inconclusive)
AC50 [1]: 15.8 µM (inconclusive)
CC50 [2]: 35.6 µM (active)

CC(=O)c1cccc(NS(=O)(=O)c2cc(-c3cnc(C4CC4)o3)ccc2C)c1
AC50 [3]: 25 µM (active)
AC50 [4]: 1.03 µM (active)

O=C(C1=C[C@H](c2ccc(C(F)(F)F)cc2)C[C@H](OCc2ccc(CO)cc2)O1)N1CCN(Cc2ccc3c(c2)OCO3)CC1
AC50 [3]: 25.8 µM (active)
EC50 [5]: 0.265 µM (active)
EC50 [6]: > 60 µM (not active)
AC50 [4]: 4.74 µM (active)

CCCc1cc2c(OC(=O)CC)c(-c3ccc(C(=O)OCC)o3)c(=O)oc2cc1OC
IC50 [7]: 7.94 µM (active)
IC50 [8]: 5.51 µM (active)

CCOc1ccc(CC(=O)NNC(=S)NC2CCCCC2)cc1OCC
EC50 [9]: 17.2 µM (active)
IC50 [10]: 40.9 µM (active)
EC50 [11]: 18.7 µM (active)
EC50 [12]: 17.8 µM (active)

O=C(c1cccc(OC2CCN(Cc3ccc(F)cc3Cl)CC2)c1)N1CCCC1
IC50 [13]: 18.2 µM (active)

Cc1cc(C(=O)NC2CCCc3c2cnn3-c2ccc(C(C)(C)C)cc2)nn1C (stereo not drawn)
IC50 (HEK293): 12.2 µM (active)
IC50 [14]: 5.2 µM (active)
IC50 [15]: 1.33 µM (active)
AC50 [16]: 1.86 µM (active)
IC50 (Tumor necrosis factor): 1.44 µM (active)
AC50 [17]: 4.61 µM (active)
